This is an account of results in patent US20250212877A1, “SUGAR-CONTAINING COMPOSITION FOR FOLIAR SPRAY AND METHOD OF USING THE SAME” (priority 2022, published 2025).

Each structure is given as a SMILES string.

For the data set, the system named is tomato leaf. The experiment in a line: Foliar absorption rate of sugar, Congo red method, tomato leaf. Particulars: summary of TABLE 1 over tomato and strawberry leaves; no adjuvant.

From the text: In glass greenhouse, cucumber (Korean White, made by Farm Hannong, Korea) and tomato (Seogwangtomato, made by Farm Hannong, Korea) seeds were sown to raise plants. The young plants were transplanted to a vinyl cup having a diameter of 10 cm and cucumber was cultivated up to 4.5-leaf stage and tomato was cultivated up to 6.5-leaf stage. Strawberry young plants (KINGSBERRY) were given from strawberry laboratory, put in each cup pot having a diameter of 10 cm and cultivated up to 6 to 8-leaf stage in the greenhouse. […] Acetonitrile and nonionized water were mixed at 3:7 (volume/volume) to prepare a 30% acetonitrile aqueous solution, 8 ml was put into a test tube having an outer diameter of 32 mm and a length of 200 mm and the test tube was closed with a rubber lid. The leaves sprayed with the sugar aqueous solution was picked, put and cleaned by reverse shaking at the speed of 60 rpm for 2 minutes. The cleaning solution was analyzed by high-performance liquid chromatography (HPLC) to quantify Congo red and sugar, and the sugar absorption rate was calculated by the following Equation 1.

As for `OC[C@H]1O[C@@](CO)(O[C@H]2O[C@H](CO)[C@@H](O)[C@H](O)[C@H]2O)[C@@H](O)[C@@H]1O` [sucrose], the “Absorption by tomato leaves and strawberry leaves, maximum” value was ≤ 1.3%.
